According to the NIST ThermoML archive (doi:10.1021/je200811n):

Conditions: Hot wire method

C=C(F)C(F)(F)F [2,3,3,3-tetrafluoro-1-propene]
Conditions	thermal conductivity [W/m/K]
272.85 K, 247 kPa, Gas	0.01156
272.89 K, 200 kPa, Gas	0.01156
272.97 K, 145 kPa, Gas	0.0116
273.04 K, 106 kPa, Gas	0.01162
273.14 K, 261 kPa, Gas	0.01159
273.17 K, 273 kPa, Gas	0.01162
273.19 K, 247 kPa, Gas	0.01159
273.26 K, 200 kPa, Gas	0.0116
273.35 K, 144 kPa, Gas	0.01162
273.44 K, 105 kPa, Gas	0.01163
273.46 K, 258 kPa, Gas	0.01159
273.55 K, 274 kPa, Gas	0.01163
273.58 K, 248 kPa, Gas	0.01163
273.64 K, 200 kPa, Gas	0.0116
273.76 K, 142 kPa, Gas	0.01165
273.82 K, 255 kPa, Gas	0.01165
273.87 K, 104 kPa, Gas	0.01165
274.2 K, 253 kPa, Gas	0.01169
281.36 K, 838 kPa, Liquid	0.06988
281.38 K, 860 kPa, Liquid	0.06977
281.41 K, 5779 kPa, Liquid	0.07285
281.44 K, 10941 kPa, Liquid	0.07602
281.46 K, 841 kPa, Liquid	0.06981
281.48 K, 862 kPa, Liquid	0.06968
281.51 K, 5779 kPa, Liquid	0.07276
281.54 K, 10939 kPa, Liquid	0.07609
281.66 K, 86 kPa, Gas	0.01256
281.66 K, 204 kPa, Gas	0.01278
281.79 K, 859 kPa, Liquid	0.06833
281.83 K, 10935 kPa, Liquid	0.07514
281.88 K, 202 kPa, Gas	0.01259
281.89 K, 87 kPa, Gas	0.01239
281.89 K, 843 kPa, Liquid	0.06853
281.93 K, 861 kPa, Liquid	0.06844
281.93 K, 5767 kPa, Liquid	0.07189
281.94 K, 10934 kPa, Liquid	0.07471
281.98 K, 15950 kPa, Liquid	0.07767
282.01 K, 15964 kPa, Liquid	0.07708
282.11 K, 200 kPa, Gas	0.0125
282.13 K, 88 kPa, Gas	0.01231
282.23 K, 841 kPa, Liquid	0.06878
282.25 K, 20590 kPa, Liquid	0.0797
282.26 K, 866 kPa, Liquid	0.06872
282.26 K, 5764 kPa, Liquid	0.07204
282.26 K, 10935 kPa, Liquid	0.07477
282.27 K, 15954 kPa, Liquid	0.07706
282.31 K, 15965 kPa, Liquid	0.0773
282.35 K, 198 kPa, Gas	0.01243
282.38 K, 90 kPa, Gas	0.01224
282.4 K, 841 kPa, Liquid	0.06858
282.4 K, 5763 kPa, Liquid	0.07193
282.4 K, 10935 kPa, Liquid	0.07479
282.41 K, 864 kPa, Liquid	0.0687
282.41 K, 15954 kPa, Liquid	0.07738
282.44 K, 15967 kPa, Liquid	0.07756
282.56 K, 395 kPa, Gas	0.01244
282.61 K, 196 kPa, Gas	0.01241
282.61 K, 308 kPa, Gas	0.01242
282.64 K, 91 kPa, Gas	0.01218
282.66 K, 20587 kPa, Liquid	0.07986
282.71 K, 204 kPa, Gas	0.0124
282.74 K, 5763 kPa, Liquid	0.07185
282.74 K, 10939 kPa, Liquid	0.07487
282.74 K, 15951 kPa, Liquid	0.07763
282.75 K, 834 kPa, Liquid	0.06855
282.77 K, 860 kPa, Liquid	0.06866
282.77 K, 15964 kPa, Liquid	0.07774
282.81 K, 20585 kPa, Liquid	0.07986
282.87 K, 396 kPa, Gas	0.01251
282.89 K, 10938 kPa, Liquid	0.07473
282.9 K, 15949 kPa, Liquid	0.07751
282.92 K, 87 kPa, Gas	0.01242
282.92 K, 5765 kPa, Liquid	0.07169
282.93 K, 832 kPa, Liquid	0.06832
282.93 K, 15964 kPa, Liquid	0.07755
282.94 K, 309 kPa, Gas	0.01248
282.96 K, 859 kPa, Liquid	0.06843
283.07 K, 203 kPa, Gas	0.01237
283.22 K, 396 kPa, Gas	0.01252
283.24 K, 15950 kPa, Liquid	0.07752
283.25 K, 10936 kPa, Liquid	0.07481
283.26 K, 15963 kPa, Liquid	0.07747
283.26 K, 20587 kPa, Liquid	0.07981
283.28 K, 5763 kPa, Liquid	0.07184
283.3 K, 309 kPa, Gas	0.01244
283.3 K, 832 kPa, Liquid	0.06845
283.33 K, 86 kPa, Gas	0.01249
283.33 K, 857 kPa, Liquid	0.0685
283.43 K, 15951 kPa, Liquid	0.07738
283.45 K, 10934 kPa, Liquid	0.07455
283.45 K, 20590 kPa, Liquid	0.07959
283.46 K, 201 kPa, Gas	0.01238
283.46 K, 15962 kPa, Liquid	0.07733
283.49 K, 5765 kPa, Liquid	0.07154
283.53 K, 830 kPa, Liquid	0.06815
283.56 K, 855 kPa, Liquid	0.06813
283.59 K, 396 kPa, Gas	0.01244
283.69 K, 309 kPa, Gas	0.01251

Liquid
Conditions	thermal conductivity [W/m/K]
273.15 K	0.07159
283.15 K	0.06833
